Measurements as given in the NIST ThermoML archive (doi:10.1021/je060107n).

Assay: mn = molality of the nth substance listed, in mol/kg
Settings: 101 kPa, Liquid; for mass density: Pycnometric method; for viscosity: Capillary tube (Ostwald / Ubbelohde) method; for speed of sound: Linear variable-path acoustic interferometer

CC(=O)[O-].CC(=O)[O-].[Mg+2] [magnesium acetate] + O
Settings | mass density [kg/m3] | speed of sound [m/s] | viscosity [mPa·s]
310.45 K, m1 = 6.187 | 1273.1 | – | –
310.6 K, m1 = 1.327 | 1082.8 | – | –
310.7 K, m1 = 1.106 | 1070.3 | – | –
310.8 K, m1 = 6.545 | 1280.7 | – | –
310.85 K, m1 = 0.0414 | 996.1 | – | –
310.85 K, m1 = 3.437 | 1189.2 | – | –
310.95 K, m1 = 5.165 | 1244.3 | – | –
311.2 K, m1 = 3.819 | 1201 | – | –
311.25 K, m1 = 3.043 | 1168.8 | – | –
311.35 K, m1 = 0.646 | 1039.6 | – | –
311.4 K, m1 = 1.354 | 1083.9 | – | –
311.65 K, m1 = 0.8751 | 1054 | – | –
311.85 K, m1 = 0.0831 | 998.98 | – | –
311.9 K, m1 = 4.547 | 1224.6 | – | –
312.1 K, m1 = 0.4247 | 1024 | – | –
312.15 K, m1 = 1.608 | 1099 | – | –
312.3 K, m1 = 6.187 | 1271.8 | – | –
312.45 K, m1 = 2.134 | 1126.3 | – | –
312.55 K, m1 = 0.1671 | 1004.8 | – | –
312.55 K, m1 = 2.622 | 1149.7 | – | –
312.7 K, m1 = 6.545 | 1279.4 | – | –
313.15 K, m1 = 0.0414 | – | 1532.2 | 0.6835
313.15 K, m1 = 0.0831 | – | 1539 | 0.7037
313.15 K, m1 = 0.1671 | – | 1547.7 | 0.7523
313.15 K, m1 = 0.4247 | – | 1582.3 | 0.9195
313.15 K, m1 = 0.646 | – | 1607.4 | 1.105
313.15 K, m1 = 0.8751 | – | 1635.6 | 1.294
313.15 K, m1 = 1.106 | – | 1659.1 | 1.573
313.15 K, m1 = 1.354 | – | 1679.3 | 1.887
313.15 K, m1 = 1.608 | – | 1704.6 | 1.887
313.15 K, m1 = 1.866 | – | 1728.4 | 2.771
313.15 K, m1 = 2.134 | – | 1752.5 | 3.404
313.15 K, m1 = 2.411 | – | 1778.6 | 4.373
313.15 K, m1 = 2.622 | – | 1787.1 | 4.948
313.15 K, m1 = 3.043 | – | 1815 | 6.797
313.15 K, m1 = 3.437 | 1188 | 1840.3 | 10.13
313.15 K, m1 = 3.819 | – | 1854.1 | –
313.15 K, m1 = 4.001 | – | – | 15.43
313.15 K, m1 = 4.547 | – | 1878.9 | –
313.15 K, m1 = 4.563 | – | – | 24.53
313.15 K, m1 = 4.929 | – | – | 30.41
313.15 K, m1 = 5.165 | – | 1896 | –
313.15 K, m1 = 5.41 | – | – | 54.06
313.15 K, m1 = 5.732 | – | – | 71.46
313.15 K, m1 = 6.187 | – | – | 120
313.35 K, m1 = 0.0414 | 995.14 | – | –
313.45 K, m1 = 1.327 | 1081.7 | – | –
313.45 K, m1 = 1.866 | 1111.6 | – | –
313.45 K, m1 = 3.819 | 1199.8 | – | –
313.5 K, m1 = 1.106 | 1069.1 | – | –
313.5 K, m1 = 3.043 | 1167.6 | – | –
313.55 K, m1 = 5.732 | 1258.3 | – | –
314 K, m1 = 4.547 | 1223.4 | – | –
314.05 K, m1 = 1.354 | 1082.8 | – | –
314.1 K, m1 = 2.411 | 1140.6 | – | –
314.25 K, m1 = 0.646 | 1038.6 | – | –
314.25 K, m1 = 6.187 | 1270.4 | – | –
314.3 K, m1 = 0.8751 | 1052.9 | – | –
314.35 K, m1 = 0.0831 | 997.91 | – | –
314.5 K, m1 = 6.545 | 1278.1 | – | –
314.65 K, m1 = 0.4247 | 1022.9 | – | –
